The subject of data set [1] is IFN-γ or IL-5 production in human PBMC. The experiment in a line: Inhibition of Interferon-Gamma (IFN-γ) or IL-5 production in human PBMC assay (MSD technology). It counts as cell-based. The conditions noted are these: human PBMC assay or a similar assay; CYTOSTIM stimulation, 20 hours; read-out: mean pIC50 (converted). The procedure:
Inhibition of Interferon-Gamma (IFN-γ) or IL-5 Production in Human PBMC (Peripheral Blood Mononuclear Cell) Assay (MSD Technology)
A 96-well plate (96 MicroWell™ Plates Nunclon™—High Flange Design, Fisher Scientific UK, Loughborough, UK) is prepared by initially adding to column 1 ca. 10 mM of test compound dissolved in DMSO. […] The compound is further diluted with DMSO into columns 2 to 9 by 8 successive 4-fold dilutions using the Biomek® 2000 Laboratory Automation Workstation (Beckman Coulter, Inc., Fullerton, Calif.). Column 10 is used as a DMSO negative control (High Signal, 0% response), whilst column 11, which contains 10 mM of the pan-PI3K inhibitor wortmannin, is used as a positive control (Low Signal, 100% response). About 1 μl of compound is transferred to the compound plate using the Biomek® FX.
PBMC cells (peripheral blood mononuclear cells) are prepared from heparinised human blood (using 1% v/v Heparin Sodium 10001 U/ml Endotoxin Free, Leo Laboratories Ltd., Dublin. Ireland, Cat No: PL0043/0149) from normal volunteers using the Accuspin™ System-Histopaque®-1077 essentially (Sigma-Aldrich Company Ltd., Gillingham Dorset, UK). About 20 ml of blood is overlaid onto 15 ml Histopaque® in Accuspin™ tubes. The tube is then centrifuged at about 800 g for ca. 20 minutes. The cells are collected from the interface, washed by centrifugation (ca. 1300 g, ca. 10 minutes) and resuspended in assay medium (Low endotoxin RPMI1640 medium, Cat No: 31870-025, Invitrogen Corporation Invitrogen Ltd, Paisley, UK) containing 10% foetal calf serum (Invitrogen Corporation, Cat No: CT2507), 2 mM L-glutamine (Invitrogen Corporation, Cat No: 25030024), 10 U/ml penicillin and 10 μg/ml streptomycin (Invitrogen Corporation, Cat No: 15140-122). Viable cells are counted by trypan blue staining and diluted to 6.6×10^5 viable cells/ml. About 150 μl of diluted cells are then added to the compound plate and incubated 37 degrees C. for 1 hour prior to addition of 50 μl of 0.125% (v/v) CYTOSTIM (Cat No: 130-092-173, Miltenyi Biotec Ltd., Bisley, Surrey, UK) diluted in assay medium. The assay plate is then incubated at 37° C., 5% CO2, for 20 hours. The supernatant is removed and the concentrations of IFN-γ and IL-5 are determined by electrochemiluminescence assay using the Meso Scale Discovery (MSD) technology (Meso Scale Discovery, Gaithersburg, Md., USA) as described below.
Supernants were assayed using MSD (Meso Scale Discovery) technology using either the ultra sensitive IFN-γ single plex or the IFN-γ/IL-5 multiplex 96-well plates (MA6000). For the IL-5/IFNg multiplex, Human Serum Cytokine Assay Diluent (25 μl) is added to the plates precoated with anti-cytokine antibody and then incubated for 24 hours at 4° C. to prevent non-specific binding. This blocking step is not required for the Ultrasensitive IFN-γ plates. About 25 μl of supernatant from the PBMC plate is then transferred from columns 1-11 to columns 1-11 of the MSD plate using the Biomek FX. About 25 μl of standard (IFN-γ Cat No. Calibrator C0AE, IL-5 Cat No. Calibrator C01AJ, Meso Scale Discovery) are added to column 12 of the MSD plate to generate a standard calibration curve (about 0 to 10000 pg/ml final). Plates are washed after 2 hours shaking with a Skanwasher 300 version B (Skatron Instruments AS. PO Box 8, N-3401 Lier, Norway). […] About 150 μl of Read Buffer T (2×) is added to the plates, which are then read on a MSD Sector 6000. […]

The target of another data set is CK2 protein kinase (Homo sapiens, UniProt P68400). The settings on record: background, literature; cited from earlier work.

Each structure is given as a SMILES string.

Chain of CK2 protein kinase (P68400 whole entry): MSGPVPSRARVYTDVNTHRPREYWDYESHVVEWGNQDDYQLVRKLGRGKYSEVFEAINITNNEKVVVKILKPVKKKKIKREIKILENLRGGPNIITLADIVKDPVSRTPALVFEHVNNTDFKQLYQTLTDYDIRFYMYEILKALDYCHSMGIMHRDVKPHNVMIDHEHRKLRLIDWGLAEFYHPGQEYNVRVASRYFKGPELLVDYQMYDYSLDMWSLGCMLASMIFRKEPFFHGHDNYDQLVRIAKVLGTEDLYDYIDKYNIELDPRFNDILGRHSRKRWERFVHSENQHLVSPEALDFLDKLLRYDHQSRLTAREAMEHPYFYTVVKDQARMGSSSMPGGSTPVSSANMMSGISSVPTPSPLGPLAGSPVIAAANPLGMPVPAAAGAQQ

On to `COc1ncc(-c2cc(NC(=O)c3csc(CN4C[C@@H](C)O[C@@H](C)C4)n3)c3cnn(C)c3c2)cc1NS(C)(=O)=O` [2-{[(2R,6S)-2,6-dimethyl-4-morpholinyl]methyl}-N-(1-methyl-6-{6-(methyloxy)-5-[(methylsulfonyl)amino]-3-pyridinyl}-1H-indazol-4-yl)-1,3-thiazole-4-carboxamide], for which the IC50 in data set [1] was at most 10 µM.
The same measure, in the same setting: the value for `COc1ncc(-c2cc(NC(=O)c3csc(CN4C[C@@H](C)O[C@@H](C)C4)n3)c3cn[nH]c3c2)cc1NS(C)(=O)=O` [2-{[(2R,6S)-2,6-dimethyl-4-morpholinyl]methyl}-N-(6-{6-(methyloxy)-5-[(methylsulfonyl)amino]-3-pyridinyl}-1H-indazol-4-yl)-1,3-thiazole-4-carboxamide] was at most 10 µM; that for `COc1ncc(-c2cc(NC(=O)c3csc(CN4C[C@@H](C)O[C@@H](C)C4)n3)c3cn[nH]c3c2)cc1NS(=O)(=O)CC(F)(F)F` [2-{[(2R,6S)-2,6-dimethyl-4-morpholinyl]methyl}-N-[6-(6-(methyloxy)-5-{[(2,2,2-trifluoroethyl)sulfonyl]amino}-3-pyridinyl)-1H-indazol-4-yl]-1,3-thiazole-4-carboxamide] was at most 10 µM.
As for `COc1ccccc1S(=O)(=O)Nc1cc(-c2cc(NC(=O)c3csc(CN4C[C@@H](C)O[C@@H](C)C4)n3)c3cn[nH]c3c2)cnc1OC` [2-{[(2R,6S)-2,6-dimethyl-4-morpholinyl]methyl}-N-{6-[6-(methyloxy)-5-({[2-(methyloxy)phenyl]sulfonyl}amino)-3-pyridinyl]-1H-indazol-4-yl}-1,3-thiazole-4-carboxamide], the IC50 in data set [1] was at most 10 µM.
One may read the melting point as the temperature, or range, at which the solid turns liquid. `COc1ncc(-c2cc(NC(=O)c3csc(CN4C[C@@H](C)O[C@@H](C)C4)n3)c3cn[nH]c3c2)cc1NS(=O)(=O)c1ccc(F)cc1F` [Example 94, N-{6-[5-{[(2,4-Difluorophenyl)sulfonyl]amino}-6-(methyloxy)-3-pyridinyl]-1H-indazol-4-yl}-2-{[(2R,6S)-2,6-dimethyl-4-morpholinyl]methyl}-1,3-thiazole-4-carboxamide]: the melting point lay in the range of 211 to 212 °C.
As to `O=c1cc(N2CCOCC2)oc2c(-c3ccccc3)cccc12` [LY294002], the IC50 on CK2 protein kinase was 5 to 10 µM.
In the case of `COc1ncc(-c2cc(NC(=O)c3csc(CN4C[C@@H](C)O[C@@H](C)C4)n3)c3cn[nH]c3c2)cc1NS(=O)(=O)c1ccc(F)cc1F` [N-{6-[5-{[(2,4-difluorophenyl)sulfonyl]amino}-6-(methyloxy)-3-pyridinyl]-1H-indazol-4-yl}-2-{[(2R,6S)-2,6-dimethyl-4-morpholinyl]methyl}-1,3-thiazole-4-carboxamide], the IC50 in data set [1] was at most 10 µM.

The record behind these values is US8163743B2, “4-carboxamide indazole derivatives useful as inhibitors of PI3-kinases” (GlaxoGroupLimited, priority 2008, dated 2012).
